Source: patent US10183915B2, “Axially chiral isomers, and preparation methods therefor and pharmaceutical uses thereof” (MEDSHINE DISCOVERY INC., priority 2015, dated 2019)
Like-named read-outs stand apart in the source and are kept apart here.

Experiments:
[1] = In vivo pharmacokinetic study in male Sprague-Dawley rats (IV and PO); set-up: species or system Sprague-Dawley rat; conditions: for MRT inf: read-out: MRT0-inf; for Bioavailability: PO 10 mpk vs IV 2 mpk
Procedure: Test 6: In Vivo Pharmacokinetic Study of the Test Compounds in Rats
To study the pharmacokinetic behavior of the compounds in rats and to evaluate their pharmacokinetic characteristics, their concentrations in plasma were determined by LC/MS/MS.
Appropriate amount of sample was added to a certain amount of pure water, the pH were adjusted to 7-8, to prepare to be 1 mg/mL (filtered and clarified) and 2 mg/mL (with a few particles of suspension) for IV and PO administration. • 2.4 Administration • 18 male SD rats were randomly assigned to 6 treatment groups, 3 rats in each group. Male rats were administrated IV and PO respectively after fasting overnight. The IV dosage was 2 mg/kg, the dose volume was 2 mL/kg, the PO dosage was 10 mg/kg, and the dose volume was 5 mL/kg. 3. Experimental Procedure
For IV group, 250 μL blood samples were collected before administration, and 0.083, 0.25, 0.5, 1, 2, 4, 8, 24 hours after administration, and placed in K2-EDTA anticoagulant tube, centrifuged at 3000 rpm for 15 minutes, plasma was separated, stored at −80° C. For PO Group, blood samples were collected before administration, and 0.25, 0.5, 1, 2, 4, 8, 24 hours after administration, and the other operations were the same as group IV. The content of the test compounds in the plasma of rats after administration of IV and PO were determined by LC/MS/MS method. The linear range of the assay was 6.00-18000 nM, and the lower limit of quantification was 6 nM; the plasma samples were analyzed by pretreatment with precipitated proteins.

[2] = Stability of solid compounds in ambient temperature (15° C., nitrogen cabinet, dark; SFC chiral purity); assay type: physicochemical; conditions: for Enantiomer Excess of the Compound: solid
Procedure: Test 2: Evaluation of the Stability of Solid Compounds in Ambient Temperature.
20 mg of test compound was placed into 5 mL brown transparent sealed container with stopper and stoned in the nitrogen cabinet (15° C.) in the dark. After the preset storage time, about 2 mg of test compound was accurately weighed, added into ethanol to prepare 1 mg/mL ethanol solution. The purity and chiral purity of the compound was detected by high performance liquid chromatography (HPLC) or LC-MS (LCMS) and supercritical fluid chromatography (SFC).

[3] = Stability of compounds in ethanol solutions (heated; SFC chiral purity); assay type: physicochemical; conditions: for Enantiomer Excess of Compound: ethanol solution
Source text: Test 3: Evaluation of the Stability of Compounds in Ethanol Solutions.
(§1) An appropriate amount of test compound was accurately weighed, added into ethanol to obtain an ethanol solution. The ethanol solution of the compound was stirred in a heated oil bath. At the end of the test, the purity and chiral purity of the compound was detected by high performance liquid chromatography (HPLC) or LC-MS (LCMS) and supercritical fluid chromatography (SFC).

[4] = Stability of compounds in DMSO solutions (heated; SFC chiral purity); assay type: physicochemical; conditions: for Enantiomer Excess of Compound: DMSO solution
Procedure: Example 4: Evaluation of the Stability of Compounds in DMSO Solutions
as §1, with “DMSO” for “ethanol”, “a DMSO” for “an ethanol”, “test, a sample amount of the DMSO solution was diluted with ethanol and” for “test,”

[5] = Stability of compounds in human plasma; assay type: in vitro ADME; conditions: for Recovery (% remaining): human plasma
Procedure: (§2) Test 5: Evaluation of the Stability of Compounds in Rat Plasma and Human Plasma
(§3) 2. Experimental Procedures and Methods • 2.1 Prior to the experiment, the frozen plasma stored at −40° C. was thawed at room temperature and incubated in a 37° C. water bath for 5-10 min; centrifuged at 4000 rpm for 5 min, to remove impurities and lipids in the plasma. Measured the value of pH, if required, adjusted it to 7.4±0.1. • 2.2 Prepared 400 μM intermediate solution by diluting 4 μL of the working solution (10 mM) with 96 μL DMSO. • 2.3 Preparation of incubation samples: Remove 3 μL of intermediate solution (400 μM) to mix with 597 μL of blank plasma to achieve 2 μM of final concentration. Incubate each time point samples (0 min, 10 min, 30 min, 60 min, 120 min, in duplicate) at 37° C. in water bath. • 2.4 An aliquot of 100 μL samples of the final spiked plasma for each time point were removed to sample collected plates, added 400 μL of stop solution (200 ng/mL Tolbutamide plus 20 ng/mL Buspirone in 50% ACN/MeOH) to precipitate protein. Mixed thoroughly. • 2.5 Centrifuged each plate at 4,000 rpm for 20 min. Transfered an aliquot of supernatant (100 μL) from each well to sample plate and mixed with 200 μL ultra pure water. Shaked the plate at 800 rpm for about 10 min before submitting to LC-MS/MS analysis. 3. Experimental Data Analysis
(§4) The ratio of the peak area to the internal standard peak area was used to assess the decrease of the test compound to be measured. The % remaining of the test compound after incubation in plasma was calculated using following equation: % Remaining=100×(PAR at appointed incubation time/PAR at T0 time)
(§5) wherein PAR is the peak area ratio of analyte versus internal standard (IS)
(§6) The appointed incubation time points are: 0 min, 10 min, 30 min, 60 min, 120 min; T0: Samples prior to incubation.

[6] = Stability of compounds in SD rat plasma; assay type: in vitro ADME
Procedure: as §2, §3, §4, §5, §6

[7] = male, Sprague-Dawley, rat, plasma, iv, 2 mg/kg, male SD rats, IV 2 mpk
[8] = male, Sprague-Dawley, rat, plasma, po, 10 mg/kg, male SD rats, PO 10 mpk
[9] = male SD rats, IV 2 mpk, 2 mg/kg
[10] = male SD rats, PO 10 mpk, 10 mg/kg

O=C(O)CSc1nnc(Br)n1-c1ccc(C2CC2)c2ccccc12 (racemic) [(±)-Lesinurad, Lesinurad, reference compound]
clearance ([1]; Sprague-Dawley, rat, plasma, 2 mg/kg, male SD rats, IV 2 mpk): 5.72 ± 1.09 mL/min/kg | AUC0-inf ([1]; Sprague-Dawley, rat, plasma, 2 mg/kg, male SD rats, IV 2 mpk, read-out: AUC0-inf): 14.8 ± 3.15 µM·h | AUC0-inf ([1]; Sprague-Dawley, rat, plasma, 10 mg/kg, male SD rats, PO 10 mpk, read-out: AUC0-inf): 62.5 ± 12.1 µM·h | C0 [1, 7]: 11.6 ± 1.98 µM | half-life [1, 7]: 1.8 ± 0.65 h | MRT inf [1, 7]: 2.21 ± 0.63 h | Vd ([1]; male, Sprague-Dawley, rat, plasma, iv, 2 mg/kg, male SD rats, IV 2 mpk, read-out: Vdss): 0.76 ± 0.29 L/kg | Cmax [1, 8]: 14.5 ± 8.47 µM | half-life [1, 8]: 2.46 ± 0.18 h | Bioavailability ([1]; male, Sprague-Dawley, rat, plasma, po, 10 mg/kg, male SD rats, read-out: Bioavailability): 84.3% | MRT inf [1, 8]: 4.63 ± 1.16 h | Tmax ([1]; male, Sprague-Dawley, rat, plasma, po, 10 mg/kg, male SD rats, PO 10 mpk, read-out: Tmax): 2.33 ± 1.53 h

O=C(O)CSc1nnc(Br)n1-c1ccc(C2CC2)c2ccccc12 (single isomer, unassigned) [(−)-Lesinurad]
Enantiomer Excess of the Compound ([2]; storing time 0 day): 96.5% | Enantiomer Excess of the Compound ([2]; storing time >80 days): Unchanged | Stability of the solid powder (SFC purity) ([2]; storing over 80 days): very stable | Enantiomer Excess of Compound ([3]; 37° C., 4 days): Unchanged | Enantiomer Excess of Compound ([3]; 37° C., 7 days): Unchanged | Enantiomer Excess of Compound ([3]; heating time 0 day): 96.5% | Stability in ethanol solutions (SFC purity) ([3]; heating to 37° C. and up to 70° C.): very stable | Enantiomer Excess of Compound ([4]; 80° C., 0 h): 96.5% | Enantiomer Excess of Compound ([4]; 80° C., 2 × 24 h): Unchanged | Enantiomer Excess of Compound ([4]; 80° C., 4 × 24 h): Unchanged | Enantiomer Excess of Compound ([4]; 80° C., 2 h): Unchanged | Enantiomer Excess of Compound ([4]; 80° C., 4 h): Unchanged | Enantiomer Excess of Compound ([4]; 80° C., 8 h): Unchanged | Enantiomer Excess of Compound ([4]; 80° C., 24 h): Unchanged | Enantiomer Excess of Compound ([4]; 120° C., 0 h): 96.5% | Enantiomer Excess of Compound ([4]; 120° C., 2 × 24 h): Unchanged | Enantiomer Excess of Compound ([4]; 120° C., 4 × 24 h): Unchanged | Enantiomer Excess of Compound ([4]; 120° C., 2 h): Unchanged | Enantiomer Excess of Compound ([4]; 120° C., 4 h): Unchanged | Enantiomer Excess of Compound ([4]; 120° C., 8 h): Unchanged | Enantiomer Excess of Compound ([4]; 120° C., 24 h): Unchanged | Enantiomer Excess of Compound ([4]; 160° C., 0 h): 96.5% | Enantiomer Excess of Compound ([4]; 160° C., 8 h): Unchanged | Stability in DMSO solutions (SFC purity) ([4]; heating to 80° C., 120° C. and up to 160° C.): very stable | Stability after co-incubation with human plasma ([5]; 2 hours): very stable | Recovery (% remaining) ([5]; 2 μM, 37° C., 30 min): 100.4% | Recovery (% remaining) ([5]; 2 μM, 37° C., 60 min): 99.6% | recovery at 120 min, 2 μM ([5]; human, plasma, pH 7.4, human plasma, 2 μM, 37° C., 120 min, read-out: Recovery (% remaining)): 101% | Stability after co-incubation with SD-rat plasma ([6]; 2 hours): very stable | recovery at 0 min, 2 μM ([6]; SD, rat, plasma, pH 7.4, SD rat plasma, 2 μM, 37° C., 0 min, read-out: Recovery (% remaining)): 100% | recovery at 10 min, 2 μM ([6]; SD, rat, plasma, pH 7.4, SD rat plasma, 2 μM, 37° C., 10 min, read-out: Recovery (% remaining)): 102% | recovery at 30 min, 2 μM ([6]; SD, rat, plasma, pH 7.4, SD rat plasma, 2 μM, 37° C., 30 min, read-out: Recovery (% remaining)): 99.9% | recovery at 60 min, 2 μM ([6]; SD, rat, plasma, pH 7.4, SD rat plasma, 2 μM, 37° C., 60 min, read-out: Recovery (% remaining)): 97.9% | recovery at 120 min, 2 μM ([6]; SD, rat, plasma, pH 7.4, SD rat plasma, 2 μM, 37° C., 120 min, read-out: Recovery (% remaining)): 100% | Transformation of the atropisomer in vivo ([1]; SD rats, IV and PO): no transformation was observed | AUC0-inf [1, 9]: 14.419 ± 1.54695 µM·h | C0 [1, 9]: 9.39 ± 3.21 µM | Cl [1, 9]: 5.76 ± 0.59 mL/min/kg | MRT0-inf [1, 9]: 2.16 ± 0.07 h | T1/2 [1, 9]: 1.46 ± 0.03 h | Vdss [1, 9]: 0.75 ± 0.10 L/kg | Bioavailability ([1]; male SD rats): 65.11% | AUC0-inf [1, 10]: 46.94391 ± 11.4987 µM·h | Cmax [1, 10]: 11 ± 3.99 µM | MRT0-inf [1, 10]: 3.92 ± 0.64 h | T1/2 [1, 10]: 2.17 ± 0.10 h | Tmax [1, 10]: 2.33 ± 1.53 h
